Results as given in a melting point compilation (Tetko et al.).

SMILES | melting point
CC(C)(C)OC(=O)C(Cl)(Cl)Cl | 25.5 °C
O=C(O)C(F)(F)C(F)(F)C(F)(F)C(F)(F)C(=O)O | 134 °C
C1CC2CCC1C2 | 87.5 °C
COc1ccc(C=C(C(=O)O)C(=Cc2ccc(OC)cc2)C(=O)O)cc1 | 263 °C
COc1c(F)c(F)cc(C(=O)O)c1F | 115 °C
CCCN(CCC)C(=O)Cc1c(-c2ccc(Cl)cc2)nc2ccc(Cl)cn12 | 140 °C
Cc1c(CCl)cccc1[N+](=O)[O-] | 42 to 47 °C
Cc1ncc(CO)c(C(=O)O)c1O | 248 °C
NNc1ncc(C(F)(F)F)cc1Cl | 90 to 92 °C
CCCCc1c(C)nc(N(C)C)nc1O | 102 °C
CC(NC(=O)C(C)NC(=O)C(N)CCP(C)(=O)O)C(=O)O (configuration not stated) | 160 °C
Nc1cc(Cl)c(C(F)(F)F)cc1[N+](=O)[O-] | 113 to 114 °C
CCCCCC(=O)OC | -71 °C
C=CCC1(CC=C)C(=O)NC(=O)NC1=O | 172 to 173 °C
CC1(C)CCCCC1=O | -20.5 °C
BrCCc1ccccc1 | -56 °C
CC(C)[C@@H](C)CC[C@@H](C)[C@H]1CC[C@H]2C3=CC[C@H]4C[C@@H](O)CC[C@]4(C)[C@H]3CC[C@]12C | 146 °C
NS(=O)(=O)c1c(F)cc(F)cc1Br | 126 °C
O=c1[nH]c2c(c(=O)n1C1CCCCC1)CCC2 | 316 °C
NCCCNCCNCCCN | -1.5 °C
C#CC=CC=C | -81 °C
Nc1nc(Cl)c2nc[nH]c2n1 | 300 °C

SMILES | melting point
CC(C)Nc1nc(N)nc(Cl)n1 | 133 °C
O=[N+]([O-])c1ccc(O)c(CBr)c1 | 145 to 149 °C
CC(C)(C)c1cc([N+](=O)[O-])c(O)c([N+](=O)[O-])c1 | 95 °C
BrCc1c(CBr)c(CBr)c(CBr)c(CBr)c1CBr | 292 °C
CC[C@@H]1CCC[C@H]1CC (relative stereo) | -95 °C
CC(=O)CC(=O)CC(C)=O | 49 °C
COC(=O)CC(CC(=O)OC)(c1cc(C)c(O)c(C)c1)c1cc(C)c(O)c(C)c1 | 199 °C
COc1ccc(C=Nn2c(S)nnc2CCn2c(C)nc3ccccc32)cc1 | 262 °C
Cc1onc(-c2c(F)cccc2Cl)c1C#N | 78 to 81 °C
C=CC(=O)ON1C(=O)CCC1=O | 69 °C
CCCCOCCOCCOC(=O)CCCCC(=O)OCCOCCOCCCC | -47 °C
NCC(F)C(=O)O (racemic) | 222 to 223 °C
CCCCCCCCCCCCCCCCCCCC1CCCCC1 | 45 °C
O=P(N1CCOCC1)(N1CCOCC1)N1CCOCC1 | 190 °C
N#CCCNc1ccccc1 | 52.5 °C
CC(C)(C)CC(C)(C)Nc1nc(N2CCOCC2)nc(N2CCOCC2)n1 | 159 °C
OCCNC1CCCCC1 | 36 °C
O=C1C=CC2(CCC23C=CC(=O)O3)O1 (configuration not stated) | 158 °C
Cc1cc[nH]n1 | 36.5 °C
CC(C)OC(=O)C(O)(c1ccc(Cl)cc1)c1ccc(Cl)cc1 | 73 °C
NCCCCCC(=O)O | 211 °C
COC1C(O)C(C)OC(OC2CCC3(C=O)C(CCC4C3CCC3(C)C(C5=CC(=O)OC5)CCC43O)C2)C1O (configuration not stated) | 162 °C

SMILES | melting point
CC12CCC(C(=CC(=O)NC(N)=O)C1=O)C2(C)C (configuration not stated) | 206 °C
O=C1OC(=O)C2=C1CCCC2 | 74 °C
CCOCC1C(=O)C2(C)CCC1C2(C)C (configuration not stated) | 114 °C
O=C(O)[C@H]1CC[C@H](C(=O)O)CC1 | 312 °C
O=S1(=O)OC(c2cc(Br)c(O)c(Br)c2)(c2cc(Br)c(O)c(Br)c2)c2c(Br)c(Br)c(Br)c(Br)c21 | 203 to 205 °C
Ic1ccc(N(c2ccc(I)cc2)c2ccc(I)cc2)cc1 | 167 °C
C=C1C(=O)C23C4CC5C(C)(C=O)CCCC5(C(=O)O4)C2C(OC(C)=O)CC1C3O (configuration not stated) | 209 °C
O=C(OCCOC(=O)C(Cl)(Cl)Cl)C(Cl)(Cl)Cl | 40 °C
CCCCCCCCCCCCCCOc1ccccc1NC(=O)c1cc(Oc2ccc([N+](=O)[O-])cc2CN(C(=O)Cl)C(C)C)c2ccccc2c1O | 109 to 116 °C
CC(=O)OC1CC2C(C)C(=O)C3(C(OC(C)=O)CC4C5(C)CCCC4(C(OC(C)=O)OC5)C13)C2OC(C)=O (configuration not stated) | 104 °C
C[Si]1(C)O[Si](C)(C)O[Si](C)(C)O[Si](C)(C)O[Si](C)(C)O[Si](C)(C)O[Si](C)(C)O1 | -26 °C
O=C1NC(=O)C(=NNc2ccccc2)C(=O)N1 | 309 to 310 °C
COc1cc(NC(=S)Nc2ccc(Br)cc2)c(C(c2ccc(C)o2)c2ccc(C)o2)cc1OC | 167 °C
C=CC1(C)OC(=O)N(c2cc(Cl)cc(Cl)c2)C1=O (configuration not stated) | 108 °C
O=Cc1cc(Cl)cc(Cl)c1O | 96 °C
C[Si](C)(C)Nc1ncnc2c1ncn2[Si](C)(C)C | 86 °C
COc1cc(/C=C/c2cc(C)cc(OC)c2O)ccc1O | 124 °C
O=C=Nc1ccc(Cl)c([N+](=O)[O-])c1 | 66 °C
O=CCCCC=O | -6 °C
Cn1c(=O)c2c(ncn2CC2OCCO2)n(C)c1=O | 144 °C
CC12CCC(=O)C=C1CCC1C2C(O)CC2(C=O)C(C(=O)CO)CCC12 (configuration not stated) | 167 °C
O=C(O)C=Cc1c[nH]cn1 | 225 °C

The remaining lines, values ahead:

melting point | SMILES
200 °C | Cc1cc(C)nc(NS(=O)(=O)c2ccc(N)cc2)n1
70 to 73 °C | O=C(Cl)C1=Cc2ccccc2OC1
161 °C | O=C(C1=NOC2C(=O)N(c3ccccc3)C(=O)C12)c1ccccc1 (configuration not stated)
63 to 65 °C | Oc1ccc2c(c1)OCO2
118 °C | C/C(OCCc1ccccc1)=C(/C#N)c1ccccc1
102 °C | NC(c1ccccc1)(c1ccccc1)c1ccccc1
62 to 65 °C | CC(C)[Si](C(C)C)(C(C)C)n1ccc2c(Br)cccc21
51 to 52 °C | O=Cc1ccccc1Oc1ccccn1
189 °C | C/C(Cc1ccccc1)=N\NC(N)=O
111 °C | CC(=O)c1cc2cc(Br)ccc2o1
117 to 120 °C | COc1ccc(Cn2ncc(Cl)c(Cl)c2=O)cc1
108 °C | O=C(c1ccncc1)c1ccc(Cl)cc1
195 °C | Nc1c(Br)cc(Br)cc1Cc1ccccc1
20 to 22 °C | O=CC(Cl)=Cc1ccccc1
55 °C | N#CCON=C(C#N)c1ccccc1
168 °C | O=C(O)c1ccc(C(F)(F)F)cc1F
22.8 °C | CCCCCCCC(=O)c1ccccc1
181 °C | O=[N+]([O-])c1cc([N+](=O)[O-])c(C(Cl)C(Cl)c2ccccc2)cc1/C=C\c1ccccc1 (configuration not stated)
38 to 40 °C | CC(O)c1ccccc1C(F)(F)F (configuration not stated)

melting point | SMILES
124 °C | CCOC(=O)CCc1ccc2c(c1)NC(=O)CC2
139 to 141 °C | OC1(c2ccc(Cl)cc2)CCNCC1
53.5 °C | CCOC(=O)C1(S(=O)(=O)c2ccc(C)cc2)CCC1
302 °C | Cn1c(=O)c(C2=NNC(=O)C2=NNc2ncccn2)c(O)c2ccccc21
79.8 °C | Cc1ccc(Nc2ccc(C)cc2)cc1
163 to 165 °C | Cc1cccc(C)c1NC(=O)C(C)Br (configuration not stated)
168 to 171 °C | O=C(Cl)c1ccc(-c2csnn2)cc1
58 °C | CC(=O)CCc1ccc(CCC(C)=O)c([N+](=O)[O-])c1
83 °C | COc1ccc(F)c(C#N)c1
119 °C | O=C(C(=S)Nc1ccccc1Cl)c1ccccc1
177 to 178 °C | Sc1nnc(-c2cccc3ccccc23)n1Cc1ccco1
144 to 145 °C | CCOC(=O)c1cc2cc(OC(F)(F)F)ccc2[nH]1
73 °C | Nc1ccc(Cl)c(Cl)c1Cl
83 to 84 °C | CN(C)c1ccc(C=O)c(Cl)c1
176 °C | CCC(=O)c1c(O)cc(O)cc1O
54 °C | CC(=O)CCc1oc2ccccc2c1-c1ccc(C)o1
92 °C | CCOC(=O)C(C)Oc1ccc(Oc2cnc3cc(Cl)ccc3n2)cc1 (configuration not stated)
217 °C | COC(=O)C1=C(C)NC(C)=C(C(=O)On2nnc3ccccc32)[C@H]1c1ccc([N+](=O)[O-])cc1
144 to 146 °C | O=C(O)C1CC(=O)N(Cc2cccs2)C1 (configuration not stated)

melting point | SMILES
69 to 71 °C | CN(N)C(=O)c1ccccc1N
199 °C | CC(=O)c1nn2c(nc(=O)c3ccccc32)s1
78 to 81 °C | O=C(O)C1CCN(C(=O)OCc2ccccc2)CC1
238 °C | O=C(c1ccc(-c2ccccc2)cc1)c1ccc(-c2ccccc2)cc1
63 to 70 °C | C=C[Si](c1ccccc1)(c1ccccc1)c1ccccc1
133 °C | CC(=O)C(=Cc1ccccc1)C(=O)OC1CC(C)CCC1C(C)C (configuration not stated)
84 to 86 °C | N#Cc1ccccc1Oc1ccc(Cl)cc1Cl
228 °C | O=C(O)C1C(c2ccccc2)C(C(=O)O)C1c1ccccc1 (configuration not stated)
140 °C | O=C(c1ccco1)c1noc(-c2ccc(Cl)cc2)c1S(=O)(=O)c1ccccc1
94 °C | O=C(Nc1ccccc1[N+](=O)[O-])C(F)(F)C(F)(F)C(F)(F)C(F)(F)C(F)(F)C(F)(F)C(F)(F)C(F)(F)F
125 to 127 °C | COC(=O)c1ccccc1S(N)(=O)=O
258 to 261 °C | COc1ccc2[nH]cc(CC(N)C(=O)O)c2c1 (racemic)
224 to 227 °C | O=C1[C@H]2Cc3ccccc3C[C@H]2C(=O)[C@@H]2Cc3ccccc3C[C@H]12
168 °C | O=C(N[C@@H](Cc1ccccc1Br)C(=O)O)OCC1c2ccccc2-c2ccccc21
53 °C | CC(=O)c1cc(F)cc(Cl)c1
-4 °C | CC(C)(C)c1ccc2ccccc2c1
175 to 176 °C | O=[N+]([O-])c1cc(C=NO)ccc1C=NO
58 °C | Cc1ccc2c(c1)C(=O)CC2
